Results: PubChem BioAssay (NCI)
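Test compounds were applied to cells in 96-well plates for 48 hours at 5 doses. GI50 is the concentration that inhibits growth by half. At the TGI there is no net growth.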

Experiments:
Test in all cases: DTP human tumour cell line panel, 48 h
SR leukemia = tested on: SR leukemia
SK-MEL-28 melanoma = tested on: SK-MEL-28 melanoma
RPMI-8226 leukemia = tested on: RPMI-8226 leukemia
MOLT-4 leukemia = tested on: MOLT-4 leukemia
K-562 leukemia = tested on: K-562 leukemia
NCI-H23 lung = tested on: NCI-H23 lung
HOP-62 NSCLC = tested on: HOP-62 NSCLC
NCI-H460 lung = tested on: NCI-H460 lung
MDA-MB-231 breast = tested on: MDA-MB-231 breast
IGROV1 ovarian = tested on: IGROV1 ovarian

Structure (SMILES) | GI50 (SR leukemia) | TGI (SR leukemia) | GI50 (SK-MEL-28 melanoma) | TGI (SK-MEL-28 melanoma) | GI50 (RPMI-8226 leukemia) | TGI (RPMI-8226 leukemia) | GI50 (MOLT-4 leukemia) | TGI (MOLT-4 leukemia) | GI50 (K-562 leukemia) | TGI (K-562 leukemia) | GI50 (NCI-H23 lung) | TGI (NCI-H23 lung) | GI50 (HOP-62 NSCLC) | TGI (HOP-62 NSCLC) | GI50 (NCI-H460 lung) | TGI (NCI-H460 lung) | GI50 (MDA-MB-231 breast) | TGI (MDA-MB-231 breast) | GI50 (IGROV1 ovarian) | TGI (IGROV1 ovarian)
COc1ccc(-n2cc(-c3cc(OC)c(OC)c(OC)c3)nc2SCc2ccccc2)cc1OC | 44.1 µM | > 100 µM | > 100000 nM | > 100 µM | 25.8 µM | > 100 µM | 24.6 µM | > 100 µM | 54.7 µM | > 100 µM | > 100 µM | > 100 µM | > 100 µM | > 100 µM | > 100 µM | > 100 µM | > 63.6 µM | > 100 µM | 31.6 µM | 88 µM
O=C(O)C1C(C(=O)O)C23CC2(C(=O)O)C2(C(=O)O)CCC3=C3CCCC312 (stereo unspecified) | – | 6.6 µM | – | 29.9 µM | – | 37.9 µM | – | 30.2 µM | – | 95.5 µM | – | 36.4 µM | – | 22.4 µM | – | 20 µM | – | 41 µM | – | 51.6 µM
Cc1ccc2c(c1)C(C)Cc1c(Cl)ncnc1N2C (stereo unspecified) | 3.53 µM | > 100 µM | 905 nM | 48.7 µM | 3.56 µM | 17.2 µM | 3.37 µM | > 100 µM | 3.47 µM | > 100 µM | 3.29 µM | 22.7 µM | 3.74 µM | 22.2 µM | 3.66 µM | 91 µM | 2.55 µM | 6.84 µM | 3.39 µM | 36.4 µM
O=C1C=CC[C@H](/C=C/c2ccccc2)O1 | 2.78 µM | > 100 µM | 2760 nM | 15.3 µM | 0.742 µM | – | – | > 100 µM | – | > 100 µM | 2.14 µM | 10.7 µM | 7.44 µM | > 61.6 µM | 1.53 µM | 14.3 µM | 5.42 µM | 32.4 µM | 5.44 µM | 26.5 µM
COc1ccccc1N1CCN(CCc2c[nH]c3cc4c(cc23)OCO4)CC1 | 23.8 µM | 99 µM | 43900 nM | > 100 µM | 25.1 µM | > 100 µM | 38.8 µM | > 100 µM | 24.4 µM | > 100 µM | 23.4 µM | > 100 µM | 28.6 µM | > 100 µM | 15.5 µM | > 100 µM | 21.4 µM | 77.7 µM | 40.2 µM | > 100 µM
COc1cc2c(cc1OCCCCCOc1ccc(-n3c(C)nc4ccccc4c3=O)cc1)N=C[C@@H]1CCCN1C2=O | 0.11 µM | 0.393 µM | 270 nM | 0.853 µM | 0.204 µM | 0.545 µM | 0.196 µM | 0.5 µM | 0.164 µM | – | 0.226 µM | 0.528 µM | 0.23 µM | 0.524 µM | 0.248 µM | 0.691 µM | 0.188 µM | 0.636 µM | 0.182 µM | 0.64 µM
COc1ccc(C(=O)/C=C/c2ccc3c(c2)OCO3)c(OCc2ccccc2)c1 | – | > 27.1 µM | – | > 100 µM | – | 76.6 µM | – | > 26.4 µM | – | > 100 µM | – | > 100 µM | – | > 100 µM | – | > 100 µM | – | > 100 µM | – | > 100 µM
